According to ChEMBL document CHEMBL1133524 (J Med Chem, 2000):
≈ marks a conversion by molar mass, not a printed value. Calls of active or inactive are those of the source. The calls are words filed in the database; no cut-off is given here.

How the values were obtained:
[1] = system: U-87 MG; assay: Tested in vitro for cytotoxic activity against glioblastoma (U-87-MG) cell line; NA means Not active; assay type: functional, cell-based; conditions: Homo sapiens; U-87MG ATCC
[2] = system: 1A9; assay: Tested in vitro for cytotoxic activity against Human ovarian cancer (IA9) cell line; NA means Not active; assay type: functional, cell-based
[3] = system: KB; assay: Tested in vitro for cytotoxic activity against epidermoid carcinoma of the nasopharynx(KB) cell line; NA means Not active; assay type: functional, cell-based; conditions: Homo sapiens
[4] = system: HCT-8; assay: Tested in vitro for cytotoxic activity against ileocecal carcinoma (HCT-8) cell line; NA means Not active; assay type: functional, cell-based; conditions: Homo sapiens
[5] = system: MCF7; assay: Tested in vitro for cytotoxic activity against breast cancer (MCF-7) cell line; assay type: functional, Homo sapiens
[6] = system: PC-3; assay: Tested in vitro for cytotoxic activity against prostate cancer (PC3) cell line; assay type: functional, Homo sapiens
[7] = system: KB; assay: Tested in vitro for cytotoxic activity against P-glycoprotein-expressing epidermoid carcinoma of the nasopharynx(KB-VIN) cell line; assay type: functional, Homo sapiens
[8] = system: SK-MEL-2; assay: Tested in vitro for cytotoxic activity against melanoma (SKMEL-2) cell line; assay type: functional, Homo sapiens
[9] = system: A549; assay type: functional, Homo sapiens
Description: Tested in vitro for cytotoxic activity against lung carcinoma (A-549) cell line

[10] = system: HOS; assay: Tested in vitro for cytotoxic activity against bone(HOS) cell line; NA means Not active; assay type: functional, cell-based; conditions: Homo sapiens
[11] = system: HOS; assay: Tested in vitro for cytotoxic activity against bone(HOS) cell line; assay type: functional, Homo sapiens
[12] = system: KB; assay: Tested in vitro for cytotoxic activity against epidermoid carcinoma of the nasopharynx(KB) cell line; assay type: functional, Homo sapiens
[13] = system: 1A9; assay: Tested in vitro for cytotoxic activity against human ovarian cancer (IA9)cell line; assay type: functional
[14] = system: SK-MEL-2; assay: Tested in vitro for cytotoxic activity against melanoma (SKMEL-2) cell line; NA means Not active; assay type: functional, cell-based; conditions: Homo sapiens
[15] = system: PC-3; assay: Tested in vitro for cytotoxic activity against prostate cancer (PC3) cell line; NA means Not active; assay type: functional, cell-based; conditions: Homo sapiens
[16] = system: HCT-8; assay: Tested in vitro for cytotoxic activity against ileocecal carcinoma (HCT-8) cell line; assay type: functional, Homo sapiens
[17] = system: 1A9; assay: Tested in vitro for cytotoxic activity against Human ovarian cancer (IA9) cell line; assay type: functional
[18] = system: U-87 MG; assay: Tested in vitro for cytotoxic activity against glioblastoma (U-87-MG) cell line;NA means not active.; assay type: functional, cell-based; conditions: Homo sapiens; U-87MG ATCC
[19] = target: Tubulin (Bos taurus, UniProt Q6B856+Q862L2+Q862F3); assay: Inhibition of bovine tubulin polymerization; assay type: functional
[20] = system: U-87 MG; assay: Tested in vitro for cytotoxic activity against glioblastoma (U-87-MG) cell line; assay type: functional, Homo sapiens, U-87MG ATCC
[21] = target: Tubulin (Bos taurus) (UniProt Q6B856+Q862L2+Q862F3); assay: Tested for inhibition of radioligand colchicine binding to bovine tubulin; assay type: protein assay; conditions: concentration not given here

Row | SMILES | ED50 [1] | ED50 [5] [µg/mL] | ED50 [6] [µg/mL] | ED50 [7] [µg/mL] | ED50 [8] [µg/mL] | ED50 [9] [µg/mL] | ED50 [11] [µg/mL] | ED50 [12] [µg/mL] | ED50 [16] [µg/mL] | ED50 [17] [µg/mL] | IC50 [19] [µM] | other results
1 | COc1cc(OC)cc(-c2nc(O)c3ccccc3n2)c1 | inactive | > 20 | > 20 | > 20 | > 20 | > 20 |  |  |  |  |  | ED50 [2]: inactive; ED50 [3]: inactive; ED50 [4]: inactive; ED50 [10]: inactive
2 | COc1ccccc1-c1nc(O)c2ccccc2n1 | inactive | > 20 |  | > 20 |  | > 20 | > 20 | > 20 |  |  |  | ED50 [4]: inactive; ED50 [13]: > 20 µg/mL; ED50 [14]: inactive; ED50 [15]: inactive
3 | COc1cccc(-c2nc(O)c3ccccc3n2)c1OC | inactive | 20 (≈ 70.8 µM) | 20 (≈ 70.8 µM) | > 20 |  | > 20 |  |  |  |  |  | ED50 [2]: inactive; ED50 [3]: inactive; ED50 [4]: inactive; ED50 [14]: inactive; ED50 [10]: inactive
4 | COc1cccc(-c2nc(O)c3ccccc3n2)c1 | inactive | 26 (≈ 103 µM) | > 20 | > 20 | > 20 | > 20 | > 20 |  | > 20 | > 20 |  | ED50 [3]: inactive
5 | COc1ccc(-c2nc(O)c3ccccc3n2)cc1 |  | > 20 | > 20 | > 20 | > 20 | > 20 | > 20 | > 20 | > 20 | > 20 |  | ED50 [18]: inactive
6 | COc1ccccc1C1NC(=O)c2ccccc2N1 (stereo unspecified) | inactive | > 20 | > 20 | 10.2 (≈ 40.1 µM) | < 20 | > 20 | > 20 | > 20 | > 20 |  | > 40 | Inhibition [12]: 32%; Inhibition [6]: 30%
7 | COc1ccc(C2NC(=O)c3ccccc3N2)cc1OC (stereo unspecified) | inactive | 20 (≈ 70.3 µM) | > 20 | 16 (≈ 56.3 µM) | > 20 | > 20 | > 20 | > 20 | > 20 |  | > 40 | Inhibition [11]: 24%; Inhibition [12]: 28%; Inhibition [6]: 30%
8 | COc1cccc(C2NC(=O)c3cc(Cl)ccc3N2)c1 (stereo unspecified) |  | 16 (≈ 55.4 µM) | 2.5 (≈ 8.66 µM) | 0.42 (≈ 1.45 µM) | < 2.5 | 0.6 (≈ 2.08 µM) | 20 (≈ 69.3 µM) | 0.95 (≈ 3.29 µM) | 0.48 (≈ 1.66 µM) | 0.27 (≈ 0.935 µM) | 1.5 | ED50 [20]: > 20 µg/mL
9 | COc1cccc(C2NC(=O)c3ccccc3N2)c1OC (stereo unspecified) |  | > 20 | > 20 | 8.6 (≈ 30.2 µM) | < 20 | > 20 | > 20 | > 20 | > 20 |  | > 40 | ED50 [18]: inactive; Inhibition [12]: 41%; Inhibition [6]: 20%
10 | COc1ccc(C2NC(=O)c3ccccc3N2)c(OC)c1 (stereo unspecified) | inactive | > 20 | > 20 | 7.6 (≈ 26.7 µM) | > 20 | > 20 | > 20 | > 20 | > 20 |  | > 40 | Inhibition [11]: 40%; Inhibition [12]: 43%
11 | COc1ccc(-c2nc(O)c3ccccc3n2)c(OC)c1 |  | > 20 | > 20 | > 20 | > 20 | > 20 | > 20 | > 20 | > 20 |  |  | ED50 [2]: inactive; ED50 [20]: > 20 µg/mL
12 | COc1cccc(-c2nc(O)c3cc(N4CCCC4)ccc3n2)c1 |  | 0.22 (≈ 0.685 µM) | 15 (≈ 46.7 µM) | 0.1 (≈ 0.311 µM) | 0.09 (≈ 0.28 µM) | 0.5 (≈ 1.56 µM) | 7 (≈ 21.8 µM) | 0.23 (≈ 0.716 µM) | 0.06 (≈ 0.187 µM) | 0.09 (≈ 0.28 µM) |  | inhibition [21]: 24%
13 | COc1ccc(C2NC(=O)c3ccccc3N2)cc1 (stereo unspecified) | inactive | > 20 | > 20 | > 20 | > 20 | > 20 | > 20 | > 20 | > 20 | 20 (≈ 78.7 µM) | > 40 | Inhibition [6]: 14%; Inhibition [7]: 39%
14 | COc1cccc(C2NC(=O)c3ccccc3N2)c1 (stereo unspecified) |  | > 20 | > 20 | 1.2 (≈ 4.72 µM) | > 20 | 3 (≈ 11.8 µM) | > 20 | 3 (≈ 11.8 µM) | 1.5 (≈ 5.9 µM) | 1 (≈ 3.93 µM) | 5.6 | ED50 [20]: > 20 µg/mL
15 | COc1cccc(-c2nc(O)c3cc(F)ccc3n2)c1 |  | > 20 | 20 (≈ 74 µM) | 18 (≈ 66.6 µM) | > 20 |  |  | > 20 | > 20 |  |  | ED50 [2]: inactive; ED50 [20]: > 20 µg/mL; ED50 [10]: inactive
16 | COc1ccc(OC)c(C2NC(=O)c3ccccc3N2)c1 (stereo unspecified) |  | > 20 | > 20 | 8.4 (≈ 29.5 µM) | > 20 | > 20 | > 20 | > 20 | > 20 | 10 (≈ 35.2 µM) | 32 | Inhibition [11]: 40%; ED50 [20]: > 20 µg/mL; Inhibition [12]: 40%
17 | COc1cccc(-c2nc(O)c3cc4c(cc3n2)OCO4)c1 | inactive | > 20 | > 20 | > 20 | > 20 | > 20 | > 20 | > 20 |  | > 20 |  | ED50 [4]: inactive
